Reference: patent EP0487768A1, “Pharmaceutical composition with improved dissolution property” (YOSHITOMI PHARMACEUTICAL INDUSTRIES, LTD., priority 1990, dated 1992)

Experiment: Solubility of Compound A in mediums with various pHs
Format: physicochemical
Details: mediums with various pHs including water (Fig. 4)
Excerpt: Thus, as shown in Fig. 5 in the results of the dissolution test of the tablets prepared by a conventional means employed for formulation of preparations, such as mixing Compound A with lactose, corn starch, etc. for granulation, adding talc, magnesium stearate, etc. and compressing same, the dissolution property is not entirely satisfactory, reflecting the properties of the compound per se.
Fig. 1 is a graph showing the results of the dissolution test of the fine granules of Reference Example 1 and Example 1 in the 1st fluid and the 2nd fluid, Fig. 2 is a graph showing the results of the dissolution test of the tablets of Reference Example 2 and Example 2 in the 1st fluid and the 2nd fluid, Fig. 3 is a graph showing the results of the dissolution test of the fine granules of Reference Example 1 and Example 3 in the 1st fluid and the 2nd fluid, Fig. 4 is a graph showing the solubilities of Compound A in mediums with various pHs, and Fig. 5 is a graph showing the results of the dissolution test of the tablets prepared by the conventional formulation methods in the 1st fluid and the 2nd fluid.

O=c1cc2c(nn1-c1ccc(Cl)cc1)-c1ccccc1[S+]([O-])CC2 (stereo not shown) [Compound A, 2-(4-chlorophenyl)-5,6-dihydro-(1)benzothiepino[5,4-c]pyridazine-3(2H)-one 7-oxide]
solubility: slightly soluble
